Measured values: article PMC8637149 (Heliyon, 2021)
One block for each compound: values may come before it.

Columns and labels:
[1] = target: T1, ZmPEPC-C4 (Zea mays, UniProt Q84KR7); assay: ANS fluorescence titration, emission […] nm; format: binding
T1 sequence (Q84KR7 1-970): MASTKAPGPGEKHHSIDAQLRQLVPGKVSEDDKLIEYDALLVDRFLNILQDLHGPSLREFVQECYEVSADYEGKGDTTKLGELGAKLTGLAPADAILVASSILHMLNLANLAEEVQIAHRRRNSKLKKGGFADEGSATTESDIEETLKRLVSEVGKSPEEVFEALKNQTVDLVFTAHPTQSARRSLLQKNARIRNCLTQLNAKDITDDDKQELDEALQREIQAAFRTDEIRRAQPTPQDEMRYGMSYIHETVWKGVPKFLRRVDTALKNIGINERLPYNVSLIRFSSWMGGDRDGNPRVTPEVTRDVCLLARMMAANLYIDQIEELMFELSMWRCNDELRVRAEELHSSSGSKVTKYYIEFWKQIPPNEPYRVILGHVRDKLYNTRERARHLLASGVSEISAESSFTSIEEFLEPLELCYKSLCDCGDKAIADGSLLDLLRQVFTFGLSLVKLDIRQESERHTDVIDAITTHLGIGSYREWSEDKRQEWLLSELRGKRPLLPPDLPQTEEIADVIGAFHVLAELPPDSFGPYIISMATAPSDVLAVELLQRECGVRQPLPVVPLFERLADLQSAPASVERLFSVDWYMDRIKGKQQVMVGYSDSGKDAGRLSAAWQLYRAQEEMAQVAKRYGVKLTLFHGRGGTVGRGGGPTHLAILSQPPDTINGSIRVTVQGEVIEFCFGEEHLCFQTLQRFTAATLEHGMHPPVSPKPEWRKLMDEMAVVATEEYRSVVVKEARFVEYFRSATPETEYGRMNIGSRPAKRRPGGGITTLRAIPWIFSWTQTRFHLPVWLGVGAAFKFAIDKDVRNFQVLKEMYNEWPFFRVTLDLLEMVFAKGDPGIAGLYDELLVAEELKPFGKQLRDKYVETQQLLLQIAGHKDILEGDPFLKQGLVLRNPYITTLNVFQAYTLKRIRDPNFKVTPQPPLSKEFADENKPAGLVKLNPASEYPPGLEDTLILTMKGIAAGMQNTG

[2] = target: T1, ZmPEPC-C4; assay: near-UV CD and limited trypsin proteolysis; format: binding; details: 15 mM G6P, pH 7.3; allosteric activator; no effect on ANS fluorescence
[3] = target: T1, ZmPEPC-C4; assay: quenching of ANS-enzyme fluorescence at […] nm, Hill-type fit; format: binding
[4] = target: T1, ZmPEPC-C4; assay: coupled malic dehydrogenase assay, NADH oxidation at […] nm; format: biochemical; details: read-out: % inhibition at 10 mM

- Kd [1]: 14.5 ± 1.5 µM
Structure (SMILES): O=S(=O)(O)c1cccc2cccc(Nc3ccccc3)c12 [ANS]

Structure (SMILES): O=P(O)(O)OC[C@H]1OC(O)[C@H](O)[C@@H](O)[C@@H]1O (stereo partly shown) [G6P]
- near-UV CD and limited trypsin proteolysis [2]: differences were also observed in the CD spectra of the E-PEP, E-G6P, and E-Gly complexes

- Kd [3]: 360 ± 70 µM
- inhibition at 10000 µM [4]: 84.5 ± 0.2%
Structure (SMILES): O=C(O)C[C@H](O)C(=O)O [malate]
